Assay results from patent publication US10189841B2, “Purinones as ubiquitin-specific protease 1 inhibitors” (Forma Therapeutics, Inc., priority 2015, dated 2019).

Target: USP1 (construct USP1 (I-785, GG670, 671AA)/UAF1 (I-677)-Flag) (Homo sapiens (Human), UniProt O94782, G670A/G671A)
Assay: Ubiquitin-Rhodamine 110 assay for USP1 activity
Format: biochemical
Conditions: USP1/UAF1 25 pM, Ub-Rh110 25 nM, 30 min preincubation
Method in brief: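 Ub-Rh110 (25 nM, ≪Km) cleavage read at ex 485/em 535 in Tris pH 8.0, CaCl2, GSH, Prionex, Triton X-100. The screen used 10 µM compound, 100 pM USP1/UAF1 and 45 min at RT.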

Chain of USP1 (construct USP1 (I-785, GG670, 671AA)/UAF1 (I-677)-Flag) (O94782 whole entry G670A/G671A): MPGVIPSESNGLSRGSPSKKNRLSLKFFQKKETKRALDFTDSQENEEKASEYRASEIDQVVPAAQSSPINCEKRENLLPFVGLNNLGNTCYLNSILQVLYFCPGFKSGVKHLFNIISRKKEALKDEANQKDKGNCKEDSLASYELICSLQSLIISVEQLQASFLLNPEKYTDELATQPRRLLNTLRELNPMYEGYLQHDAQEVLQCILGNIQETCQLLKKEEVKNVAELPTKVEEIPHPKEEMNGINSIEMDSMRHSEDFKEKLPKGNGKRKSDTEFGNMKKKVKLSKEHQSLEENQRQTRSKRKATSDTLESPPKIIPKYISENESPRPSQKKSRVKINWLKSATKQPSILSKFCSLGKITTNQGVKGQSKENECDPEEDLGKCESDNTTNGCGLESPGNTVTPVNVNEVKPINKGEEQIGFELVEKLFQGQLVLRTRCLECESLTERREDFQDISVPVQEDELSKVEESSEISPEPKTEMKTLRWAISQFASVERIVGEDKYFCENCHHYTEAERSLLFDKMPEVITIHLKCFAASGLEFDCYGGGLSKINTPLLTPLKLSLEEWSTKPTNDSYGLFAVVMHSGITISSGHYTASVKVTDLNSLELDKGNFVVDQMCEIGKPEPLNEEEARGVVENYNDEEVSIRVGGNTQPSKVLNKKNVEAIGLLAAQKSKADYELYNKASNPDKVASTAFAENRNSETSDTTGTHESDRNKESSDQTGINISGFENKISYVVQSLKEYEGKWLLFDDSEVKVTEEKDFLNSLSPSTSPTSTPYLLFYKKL
Chain of USP1 (construct USP1 (I-785, GG670, 671AA)/UAF1 (I-677)-Flag) (Q8TAF3 whole entry partner): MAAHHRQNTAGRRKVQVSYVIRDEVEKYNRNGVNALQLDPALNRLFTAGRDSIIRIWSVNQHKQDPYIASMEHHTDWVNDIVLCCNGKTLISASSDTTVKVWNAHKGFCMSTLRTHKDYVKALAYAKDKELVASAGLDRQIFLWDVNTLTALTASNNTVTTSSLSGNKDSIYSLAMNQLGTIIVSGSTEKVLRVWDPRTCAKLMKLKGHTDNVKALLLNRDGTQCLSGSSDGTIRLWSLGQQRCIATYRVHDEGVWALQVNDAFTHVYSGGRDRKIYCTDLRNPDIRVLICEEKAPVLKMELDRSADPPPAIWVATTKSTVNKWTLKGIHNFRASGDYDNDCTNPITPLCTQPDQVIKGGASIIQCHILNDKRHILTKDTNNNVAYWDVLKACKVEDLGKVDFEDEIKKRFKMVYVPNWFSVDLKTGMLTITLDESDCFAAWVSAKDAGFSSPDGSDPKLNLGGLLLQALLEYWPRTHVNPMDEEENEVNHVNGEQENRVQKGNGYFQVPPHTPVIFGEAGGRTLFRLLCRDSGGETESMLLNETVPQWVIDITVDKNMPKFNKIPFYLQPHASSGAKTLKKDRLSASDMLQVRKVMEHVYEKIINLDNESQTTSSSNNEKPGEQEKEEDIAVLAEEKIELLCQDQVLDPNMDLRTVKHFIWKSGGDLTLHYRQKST

| SMILES | IC50 |
| --- | --- |
| CC(C)c1ccccc1-c1ncc2[nH]c(=O)n([C@@H](C)c3ccc(-c4nccn4C)cc3)c2n1 [Compound I-310, (S)-2-(2-isopropylphenyl)-9-(1-(4-(1-methyl-1H-imidazol-2-yl)phenyl)ethyl)-7,9-dihydro-8H-purin-8-one] | < 50 nM |
| CNc1ncccc1-c1ncc2[nH]c(=O)n(Cc3ccc(-c4nc(C(F)(F)F)cn4C)cc3)c2n1 [Compound I-311, 9-(4-(1-methyl-4-(trifluoromethyl)-1H-imidazol-2-yl)benzyl)-2-(2-(methylamino)pyridin-3-yl)-7,9-dihydro-8H-purin-8-one] | < 50 nM |
| CCNc1ncccc1-c1ncc2[nH]c(=O)n(Cc3ccc(-c4nc(C(F)(F)F)cn4C)cc3)c2n1 [Compound I-312, 2-(2-(ethylamino)pyridin-3-yl)-9-(4-(1-methyl-4-(trifluoromethyl)-1H-imidazol-2-yl)benzyl)-7,9-dihydro-8H-purin-8-one] | < 50 nM |
| CC(C)Nc1ncccc1-c1ncc2[nH]c(=O)n(Cc3ccc(-c4nc(C(F)(F)F)cn4C)cc3)c2n1 [Compound I-313, 2-(2-(isopropylamino)pyridin-3-yl)-9-(4-(1-methyl-4-(trifluoromethyl)-1H-imidazol-2-yl)benzyl)-7,9-dihydro-8H-purin-8-one] | < 50 nM |
| Cn1cc(C(F)(F)F)nc1-c1ccc(Cn2c(=O)[nH]c3cnc(-c4cccnc4NC4CC4)nc32)cc1 [Compound I-314, 2-(2-(cyclopropylamino)pyridin-3-yl)-9-(4-(1-methyl-4-(trifluoromethyl)-1H-imidazol-2-yl)benzyl)-7,9-dihydro-8H-purin-8-one] | < 50 nM |
| CCOCCNc1ncccc1-c1ncc2[nH]c(=O)n(Cc3ccc(-c4nc(C(F)(F)F)cn4C)cc3)c2n1 [Compound I-315, 2-(2-((2-ethoxyethyl)amino)pyridin-3-yl)-9-(4-(1-methyl-4-(trifluoromethyl)-1H-imidazol-2-yl)benzyl)-7,9-dihydro-8H-purin-8-one] | < 50 nM |
| Cn1cc(C(F)(F)F)nc1-c1ccc(Cn2c(=O)[nH]c3cnc(-c4cccnc4NC4CCC4)nc32)cc1 [Compound I-316, 2-(2-(cyclobutylamino)pyridin-3-yl)-9-(4-(1-methyl-4-(trifluoromethyl)-1H-imidazol-2-yl)benzyl)-7,9-dihydro-8H-purin-8-one] | 50 to 200 nM |
| COCC(C)Nc1ncccc1-c1ncc2[nH]c(=O)n(Cc3ccc(-c4nc(C(F)(F)F)cn4C)cc3)c2n1 (stereo not shown) [Compound I-317, 2-(2-((1-methoxypropan-2-yl)amino)pyridin-3-yl)-9-(4-(1-methyl-4-(trifluoromethyl)-1H-imidazol-2-yl)benzyl)-7,9-dihydro-8H-purin-8-one] | 50 to 200 nM |
| CN(C)C(=O)CNc1ncccc1-c1ncc2[nH]c(=O)n(Cc3ccc(-c4nc(C(F)(F)F)cn4C)cc3)c2n1 [Compound I-318, N,N-dimethyl-2-((3-(9-(4-(1-methyl-4-(trifluoromethyl)-1H-imidazol-2-yl)benzyl)-8-oxo-8,9-dihydro-7H-purin-2-yl)pyridin-2-yl)amino)acetamide] | 200 to 2000 nM |
| COC[C@@H](C)Nc1ncccc1-c1ncc2[nH]c(=O)n(Cc3ccc(-c4nc(C(F)(F)F)cn4C)cc3)c2n1 [Compound I-319, (R)-2-(2-((1-methoxypropan-2-yl)amino)pyridin-3-yl)-9-(4-(1-methyl-4-(trifluoromethyl)-1H-imidazol-2-yl)benzyl)-7,9-dihydro-8H-purin-8-one] | 200 to 2000 nM |
| Cn1cc(C(F)(F)F)nc1-c1ccc(Cn2c(=O)[nH]c3cnc(-c4cccnc4NCC4CCCO4)nc32)cc1 (stereo not shown) [Compound I-320, 9-(4-(1-methyl-4-(trifluoromethyl)-1H-imidazol-2-yl)benzyl)-2-(2-(((tetrahydrofuran-2-yl)methyl)amino)pyridin-3-yl)-7,9-dihydro-8H-purin-8-one] | 50 to 200 nM |
| Cn1cc(C(F)(F)F)nc1-c1ccc(Cn2c(=O)[nH]c3cnc(-c4cccnc4NC4CCOCC4)nc32)cc1 [Compound I-321, 9-(4-(1-methyl-4-(trifluoromethyl)-1H-imidazol-2-yl)benzyl)-2-(2-((tetrahydro-2H-pyran-4-yl)amino)pyridin-3-yl)-7,9-dihydro-8H-purin-8-one] | 200 to 2000 nM |
| Cn1cc(C(F)(F)F)nc1-c1ccc(Cn2c(=O)[nH]c3cnc(-c4cccnc4N[C@H]4CCOC4)nc32)cc1 [Compound I-322, (S)-9-(4-(1-methyl-4-(trifluoromethyl)-1H-imidazol-2-yl)benzyl)-2-(2-((tetrahydrofuran-3-yl)amino)pyridin-3-yl)-7,9-dihydro-8H-purin-8-one] | 50 to 200 nM |
| CN(C)c1ncccc1-c1ncc2[nH]c(=O)n(Cc3ccc(-c4nc(C(F)(F)F)cn4C)cc3)c2n1 [Compound I-323, 2-(2-(dimethylamino)pyridin-3-yl)-9-(4-(1-methyl-4-(trifluoromethyl)-1H-imidazol-2-yl)benzyl)-7,9-dihydro-8H-purin-8-one] | < 50 nM |
| CCN(CC)c1ncccc1-c1ncc2[nH]c(=O)n(Cc3ccc(-c4nc(C(F)(F)F)cn4C)cc3)c2n1 [Compound I-324, 2-(2-(diethylamino)pyridin-3-yl)-9-(4-(1-methyl-4-(trifluoromethyl)-1H-imidazol-2-yl)benzyl)-7,9-dihydro-8H-purin-8-one] | < 50 nM |
| Cn1cc(C(F)(F)F)nc1-c1ccc(Cn2c(=O)[nH]c3cnc(-c4cccnc4N4CCCC4)nc32)cc1 [Compound I-325, 9-(4-(1-methyl-4-(trifluoromethyl)-1H-imidazol-2-yl)benzyl)-2-(2-(pyrrolidin-1-yl)pyridin-3-yl)-7,9-dihydro-8H-purin-8-one] | < 50 nM |
| Cn1cc(C(F)(F)F)nc1-c1ccc(Cn2c(=O)[nH]c3cnc(-c4cccnc4N4CCCCC4)nc32)cc1 [Compound I-326, 9-(4-(1-methyl-4-(trifluoromethyl)-1H-imidazol-2-yl)benzyl)-2-(2-(piperidin-1-yl)pyridin-3-yl)-7,9-dihydro-8H-purin-8-one] | < 50 nM |
| COCCN(C)c1ncccc1-c1ncc2[nH]c(=O)n(Cc3ccc(-c4nc(C(F)(F)F)cn4C)cc3)c2n1 [Compound I-327, 2-(2-((2-methoxyethyl)(methyl)amino)pyridin-3-yl)-9-(4-(1-methyl-4-(trifluoromethyl)-1H-imidazol-2-yl)benzyl)-7,9-dihydro-8H-purin-8-one] | 50 to 200 nM |
| CN1CCN(c2ncccc2-c2ncc3[nH]c(=O)n(Cc4ccc(-c5nc(C(F)(F)F)cn5C)cc4)c3n2)CC1 [Compound I-328, 9-(4-(1-methyl-4-(trifluoromethyl)-1H-imidazol-2-yl)benzyl)-2-(2-(4-methylpiperazin-1-yl)pyridin-3-yl)-7,9-dihydro-8H-purin-8-one] | 200 to 2000 nM |
| Cn1cc(C(F)(F)F)nc1-c1ccc(Cn2c(=O)[nH]c3cnc(-c4cccnc4N4CCC(C(F)(F)F)CC4)nc32)cc1 [Compound I-329, 9-(4-(1-methyl-4-(trifluoromethyl)-1H-imidazol-2-yl)benzyl)-2-(2-(4-(trifluoromethyl)piperidin-1-yl)pyridin-3-yl)-7,9-dihydro-8H-purin-8-one] | < 50 nM |
| CC(C)N(C)c1ncccc1-c1ncc2[nH]c(=O)n(Cc3ccc(-c4nc(C(F)(F)F)cn4C)cc3)c2n1 [Compound I-330, 2-(2-(isopropyl(methyl)amino)pyridin-3-yl)-9-(4-(1-methyl-4-(trifluoromethyl)-1H-imidazol-2-yl)benzyl)-7,9-dihydro-8H-purin-8-one] | 50 to 200 nM |
| CCN(C)c1ncccc1-c1ncc2[nH]c(=O)n(Cc3ccc(-c4nc(C(F)(F)F)cn4C)cc3)c2n1 [Compound I-331, 2-(2-(ethyl(methyl)amino)pyridin-3-yl)-9-(4-(1-methyl-4-(trifluoromethyl)-1H-imidazol-2-yl)benzyl)-7,9-dihydro-8H-purin-8-one] | < 50 nM |
| CN(CC(F)(F)F)c1ncccc1-c1ncc2[nH]c(=O)n(Cc3ccc(-c4nc(C(F)(F)F)cn4C)cc3)c2n1 [Compound I-332, 2-(2-(methyl(2,2,2-trifluoroethyl)amino)pyridin-3-yl)-9-(4-(1-methyl-4-(trifluoromethyl)-1H-imidazol-2-yl)benzyl)-7,9-dihydro-8H-purin-8-one] | < 50 nM |
| Cn1cc(C(F)(F)F)nc1-c1ccc(Cn2c(=O)[nH]c3cnc(-c4cccnc4N4CCOCC4)nc32)cc1 [Compound I-333, 9-(4-(1-methyl-4-(trifluoromethyl)-1H-imidazol-2-yl)benzyl)-2-(2-morpholinopyridin-3-yl)-7,9-dihydro-8H-purin-8-one] | 50 to 200 nM |
| Cn1cc(C(F)(F)F)nc1-c1ccc(Cn2c(=O)[nH]c3cnc(-c4cccnc4N4CC(F)C4)nc32)cc1 [Compound I-334, 2-(2-(3-fluoroazetidin-1-yl)pyridin-3-yl)-9-(4-(1-methyl-4-(trifluoromethyl)-1H-imidazol-2-yl)benzyl)-7,9-dihydro-8H-purin-8-one] | < 50 nM |
| Cn1cc(C(F)(F)F)nc1-c1ccc(Cn2c(=O)[nH]c3cnc(-c4cccnc4N4CCC4)nc32)cc1 [Compound I-335, 2-(2-(azetidin-1-yl)pyridin-3-yl)-9-(4-(1-methyl-4-(trifluoromethyl)-1H-imidazol-2-yl)benzyl)-7,9-dihydro-8H-purin-8-one] | 50 to 200 nM |
| Cn1cc(C(F)(F)F)nc1-c1ccc(Cn2c(=O)[nH]c3cnc(-c4cccnc4N4CC(F)(F)C4)nc32)cc1 [Compound I-336, 2-(2-(3,3-difluoroazetidin-1-yl)pyridin-3-yl)-9-(4-(1-methyl-4-(trifluoromethyl)-1H-imidazol-2-yl)benzyl)-7,9-dihydro-8H-purin-8-one] | < 50 nM |
| Cn1cc(C(F)(F)F)nc1-c1ccc(Cn2c(=O)[nH]c3cnc(-c4cccnc4N4CC(C(F)(F)F)C4)nc32)cc1 [Compound I-337, 9-(4-(1-methyl-4-(trifluoromethyl)-1H-imidazol-2-yl)benzyl)-2-(2-(3-(trifluoromethyl)azetidin-1-yl)pyridin-3-yl)-7,9-dihydro-8H-purin-8-one] | < 50 nM |
